Calls of active or inactive are those of the source. No cut-off for these calls is given here.

In data set [1] the test system is HCT-116. In words: Induction of cell cycle arrest in human HCT-116 cells assessed as accumulation at G0/G1 phase at 16 uM incubated for 24 hrs by propidium iodide staining based flow cytometry. In kind it is functional. In general terms: A flow cytometer gives signals particle by particle.
The test system of data set [2] is SW480. In words: Induction of apoptosis in human SW480 cells assessed as viable cells at 2 uM incubated for 48 hrs by Annexin V-FITC/PI staining based flow cytometry (reference value: 90.56%). In kind it is functional. Particulars: read-out: Activity.
Data set [3] concerns SW480. In words: Induction of apoptosis in human SW480 cells assessed as early apoptotic cells at 2 uM incubated for 48 hrs by Annexin V-FITC/PI staining based flow cytometry (reference value: 1.87%). In kind it is functional.
The subject of data set [4] is SW480. In words: Induction of apoptosis in human SW480 cells assessed as late apoptotic cells at 2 uM incubated for 48 hrs by Annexin V-FITC/PI staining based flow cytometry (reference value: 4.67%). In kind it is functional.
For data set [5], the system named is SW480. In words: Induction of apoptosis in human SW480 cells assessed as early apoptotic cells at 4 uM incubated for 48 hrs by Annexin V-FITC/PI staining based flow cytometry (reference value: 1.87%). In kind it is functional.
Data set [6] relates to SW480. As to the kind of experiment: Induction of apoptosis in human SW480 cells assessed as late apoptotic cells at 4 uM incubated for 48 hrs by Annexin V-FITC/PI staining based flow cytometry (reference value: 4.67%). In kind it is functional.
Data set [7] has as its system SW480. As to the kind of experiment: Induction of apoptosis in human SW480 cells assessed as early apoptotic cells at 8 uM incubated for 48 hrs by Annexin V-FITC/PI staining based flow cytometry (reference value: 1.87%). In kind it is functional.
Data set [8] concerns SW480. In words: Induction of apoptosis in human SW480 cells assessed as viable cells at 16 uM incubated for 48 hrs by Annexin V-FITC/PI staining based flow cytometry (reference value: 90.56%). In kind it is functional. The note with it: read-out: Activity.
Data set [9] concerns SW480. As to the kind of experiment: Induction of apoptosis in human SW480 cells assessed as late apoptotic cells at 16 uM incubated for 48 hrs by Annexin V-FITC/PI staining based flow cytometry (reference value: 4.67%). In kind it is functional.
The subject of data set [10] is HCT-116. As to the kind of experiment: Induction of apoptosis in human HCT-116 cells at 32 uM incubated for 48 hrs by Annexin V-FITC/PI staining based flow cytometry (reference value: 12%). In kind it is functional.
The test system of data set [11] is HCT-116. In words: Induction of apoptosis in human HCT-116 cells incubated for 48 hrs by Annexin V-FITC/PI staining based flow cytometry. In kind it is functional, cell-based. The note with it: dose 2-32 µM.
The subject of data set [12] is SW480. In words: Induction of apoptosis in human SW480 cells assessed as increase in Bax protein expression at 2 to 16 uM incubated for 48 hrs by western blot analysis. In kind it is functional, cell-based. The note with it: dose 2-16 µM. A general note: In western blotting, separated proteins are transferred to a membrane and probed.
In data set [13] the test system is SW480. As to the kind of experiment: Induction of mitochondrial membrane potential loss in human SW480 cells assessed as cells with low MMP emitting green fluorescence at 8 uM incubated for 24 hrs by JC-1 staining based flow cytometry (reference value: 17.96%). In kind it is functional.
The subject of data set [14] is SW480. In words: Induction of mitochondrial membrane potential loss in human SW480 cells assessed as increase in cells with low MMP emitting green fluorescence at 2 to 8 uM incubated for 24 hrs by JC-1 staining based fluorescence microscopy. In kind it is functional, cell-based. Particulars: dose 2-8 µM.
In data set [15] the test system is HCT-116. As to the kind of experiment: Inhibition of colony formation in human HCT-116 cells at >=16 uM incubated for 48 hrs followed by culture medium replenishment for every 72 hrs and measured after 14 days by crystal violet staining based analysis. In kind it is functional. The note with it: dose microM >=16; time 14 day.
Data set [16] has as its system SW480. As to the kind of experiment: Inhibition of colony formation in human SW480 cells at >=16 uM incubated for 48 hrs followed by culture medium replenishment for every 72 hrs and measured after 14 days by crystal violet staining based analysis. In kind it is functional. The note with it: dose microM >=16; time 14 day.
The nature of data set [17]: Acute toxicity in BALB/c mouse assessed as animal survival at 250 mg/kg, ip administered per 4 hrs for 4 times and measured everyday for 14 days (reference value: 100%). In kind it is organism-based. The note with it: in vivo, time 14 day.
A short description of data set [18]: Acute toxicity in BALB/c mouse assessed as animal survival at 200 mg/kg, ip administered per 4 hrs for 4 times and measured everyday for 14 days (Rb =100%). In kind it is organism-based. The note with it: in vivo, time 14 day.
Data set [19] deals with SW480. In words: Antitumor activity against human SW480 cells xenografted in ip dosed BALB/c mouse assessed as reduction in tumor volume administered every 2 days for 12 days. The note with it: dose 25-50 mg/kg, time 12.0 day. In kind it is functional, organism-based.
Data set [20] has as its system SW480. In words: Antitumor activity against human SW480 cells xenografted in BALB/c mouse assessed as reduction in tumor necrosis at 25 to 50 mg/kg, ip administered every 2 days for 12 days by hematoxyin-eosin staining based analysis. In kind it is functional, organism-based. Particulars: dose 25-50 mg/kg, time 12.0 day. Background: Xenograft models place foreign cells or tissue in a host animal.

Consider `CCCCCCCCCC(CCO)n1cnc2c(Cl)ncnc21` (racemic), for which the result with HCT-116 [1], with SW480 [12], in the data set with SW480 [14] and with SW480 [20] was Active. Further, the viability at 2 µM in the data set on SW480 [2] is 73.9%. The Activity with SW480 [3] was found to be 5.2%; in the data set on SW480 [4] it was 11.69%; in the data set on SW480 [5] it was 11.67%; in the data set on SW480 [6], 9.11%; in the data set on SW480 [7], 11.03%; in the data set on SW480 [9] it was 20.5%. For the same compound, the Activity with HCT-116 [10] is 66%; with HCT-116 [11] it was “Dose-Dependent Effect”; in the data set with SW480 [13], 36.6%; with SW480 [19] it was “Dose-Dependent Effect”. Besides, the viability at 16 µM in the data set on SW480 [8] worked out at 44%. Further, the “inhibition (INH)” value in the data set with HCT-116 [15] and in the data set with SW480 [16] was 100% in each case. Besides, the survival at 336 h was 20% in [17] and 70% in [18].

(Values after ChEMBL document CHEMBL4811228, “Design, Synthesis, and Activity Evaluation of Novel Acyclic Nucleosides as Potential Anticancer Agents In Vitro and In Vivo” (J Med Chem, 2021).)
